# From US20150105252A1, “SUBSTITUTED PYRAZOLES AS HERBICIDES” (E I DU PONT DE NEMOURS AND COMPANY, priority 2013, published 2015)
# Tests used:
# Details in all cases: scale 0 to 100
# [1] = test system: bluegrass; experiment: Test D postemergence; assay type: in vivo, Poa annua
# Procedure, shortened: (§1)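 Formulation was a non-phytotoxic solvent mixture plus surfactant, applied either to soil at planting (silt loam, preemergence) or to foliage of 2–18 cm plants (postemergence). Visual evaluation versus controls followed at 14–21 days, scored 0–100.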
# [2] = test system: field poppy; experiment: Test D postemergence; assay type: in vivo, Papaver rhoeas
# Excerpt: (§2) Seeds of plant species selected from bluegrass (annual bluegrass, Poa annua), blackgrass (Alopecurus myosuroides), canarygrass (littleseed canarygrass, Phalaris minor), chickweed (common chickweed, Stellaria media), galium (catchweed bedstraw, Galium aparine), bromegrass, downy (downy bromegrass, Bromus tectorum), field poppy (Papaver rhoeas), field violet (Viola arvensis), foxtail, green (green foxtail, Setaria viridis), deadnettle (henbit deadnettle, Lamium amplexicaule), ryegrass, Italian (Italian ryegrass, Lolium multiflorum), kochia (Kochia scoparia), lambsquarters (Chenopodium album), oilseed rape (Brassica napus), pigweed (redroot pigweed, Amaranthus retroflexus), chamomile (scentless chamomile, Matricaria inodora), speedwell (bird's-eye speedwell, Veronica persica), barley, spring (spring barley, Hordeum vulgare), wheat, spring (spring wheat, Triticum aestivum), buckwheat, wild (wild buckwheat, Polygonum convolvulus), mustard, wild (wild mustard, Sinapis arvensis), oat, wild (wild oat, Avena fatua), radish, wild (wild radish, Raphanus raphanistrum), windgrass (Apera spica-venti), Russian thistle (Salsola kali), barley, winter (winter barley, Hordeum vulgare), and wheat, winter (winter wheat, Triticum aestivum) were planted into a silt loam soil and treated preemergence with test chemicals formulated in a non-phytotoxic solvent mixture which included a surfactant.
# (§3) At the same time, these species were planted in pots containing Redi-Earth® planting medium (Scotts Company, 14111 Scottslawn Road, Marysville, Ohio 43041) comprising spaghnum peat moss, vermiculite, wetting agent and starter nutrients and treated with postemergence applications of the test chemicals formulated in the same manner. Plants ranged in height from 2 to 18 cm (1- to 4-leaf stage). Treated plants and controls were maintained in a controlled growth environment for 14 to 21 days after which time all species were compared to controls and visually evaluated. Plant response ratings, summarized in Table D, are based on a scale of 0 to 100 where 0 is no effect and 100 is complete control. A dash (-) response means no test result.
# [3] = test system: lambsquarters; experiment: Test D preemergence; assay type: in vivo, Chenopodium album
# Procedure, shortened: as §1
# [4] = test system: kochia; experiment: Test D preemergence; assay type: in vivo, Kochia scoparia
# Procedure, shortened: as §1
# [5] = test system: deadnettle; experiment: Test D postemergence; assay type: in vivo, Lamium amplexicaule
# Procedure, shortened: as §1
# [6] = test system: kochia; experiment: Test D postemergence; assay type: in vivo, Kochia scoparia
# Procedure, shortened: as §1
# [7] = test system: barley, spring; experiment: Test D preemergence; assay type: in vivo, Hordeum vulgare
# Excerpt: as §2, §3
# [8] = test system: barley, winter; experiment: Test D preemergence; assay type: in vivo, Hordeum vulgare
# Excerpt: as §2, §3
# [9] = test system: speedwell; experiment: Test D preemergence; assay type: in vivo, Veronica persica
# Excerpt: as §2, §3
# [10] = test system: chamomile; experiment: Test D postemergence; assay type: in vivo, Matricaria inodora
# Excerpt: as §2, §3
# [11] = test system: field violet; experiment: Test D preemergence; assay type: in vivo, Viola arvensis
# Excerpt: as §2, §3
Compound,"Bluegrass plant response rating ([1]; Postemergence, 31 g ai/ha)","Bluegrass plant response rating ([1]; Postemergence, 125 g ai/ha)","Bluegrass plant response rating ([1]; Postemergence, 250 g ai/ha)","Bluegrass plant response rating ([1]; postemergence, 62 g ai/ha)","Field Poppy plant response rating ([2]; Postemergence, 31 g ai/ha)","Field Poppy plant response rating ([2]; Postemergence, 125 g ai/ha)","Field Poppy plant response rating ([2]; Postemergence, 250 g ai/ha)","Field Poppy plant response rating ([2]; postemergence, 62 g ai/ha)","Plant response rating, Lambsquarters ([3]; 62 g ai/ha)","Plant response rating, Lambsquarters ([3]; 125 g ai/ha)","Plant response rating, Lambsquarters ([3]; 250 g ai/ha)","Plant response rating, Kochia ([4]; 62 g ai/ha)","Plant response rating, Kochia ([4]; 125 g ai/ha)","Plant response rating, Kochia ([4]; 250 g ai/ha)","Deadnettle plant response rating ([5]; Postemergence, 31 g ai/ha)","Deadnettle plant response rating ([5]; Postemergence, 125 g ai/ha)","Deadnettle plant response rating ([5]; Postemergence, 250 g ai/ha)","Deadnettle plant response rating ([5]; postemergence, 62 g ai/ha)","Kochia plant response rating ([6]; Postemergence, 31 g ai/ha)","Kochia plant response rating ([6]; Postemergence, 125 g ai/ha)",other results
CCCc1cc(C(=O)NCC(F)(F)F)nn1Cc1cc(C(F)(F)F)nn1C [Compound 138],15,30,60,15,55,65,75,55,85,100,100,95,100,100,65,75,85,65,75,80,"Kochia plant response rating ([6]; Postemergence, 250 g ai/ha): 80; Kochia plant response rating ([6]; postemergence, 62 g ai/ha): 75; Plant response rating, Barley, Spring ([7]; 31 g ai/ha): 0; Plant response rating, Barley, Spring ([7]; 62 g ai/ha): 5; Plant response rating, Barley, Spring ([7]; 125 g ai/ha): 40; Plant response rating, Barley, Spring ([7]; 250 g ai/ha): 75; Plant response rating, Barley, Winter ([8]; 31 g ai/ha): 5; Plant response rating, Barley, Winter ([8]; 62 g ai/ha): 35; Plant response rating, Barley, Winter ([8]; 125 g ai/ha): 60; Plant response rating, Barley, Winter ([8]; 250 g ai/ha): 70; Plant response rating, Speedwell ([9]; 62 g ai/ha): 100; Plant response rating, Speedwell ([9]; 125 g ai/ha): 100; Plant response rating, Speedwell ([9]; 250 g ai/ha): 100; Chamomile plant response rating ([10]; Postemergence, 31 g ai/ha): 50; Chamomile plant response rating ([10]; Postemergence, 125 g ai/ha): 60; Chamomile plant response rating ([10]; Postemergence, 250 g ai/ha): 65; Chamomile plant response rating ([10]; postemergence, 62 g ai/ha): 50; Plant response rating, Field Violet ([11]; 62 g ai/ha): 100; Plant response rating, Field Violet ([11]; 125 g ai/ha): 100; Plant response rating, Field Violet ([11]; 250 g ai/ha): 100"
CCOc1cc(C(=O)NC2CC2)nn1Cc1ccnc(C(F)(F)F)c1 [Compound 189],15,15,30,15,55,75,75,55,100,100,100,100,100,100,45,55,75,45,75,80,"Kochia plant response rating ([6]; Postemergence, 250 g ai/ha): 85; Kochia plant response rating ([6]; postemergence, 62 g ai/ha): 75; Plant response rating, Barley, Spring ([7]; 31 g ai/ha): 0; Plant response rating, Barley, Spring ([7]; 62 g ai/ha): 40; Plant response rating, Barley, Spring ([7]; 125 g ai/ha): 70; Plant response rating, Barley, Spring ([7]; 250 g ai/ha): 85; Plant response rating, Barley, Winter ([8]; 31 g ai/ha): 10; Plant response rating, Barley, Winter ([8]; 62 g ai/ha): 35; Plant response rating, Barley, Winter ([8]; 125 g ai/ha): 60; Plant response rating, Barley, Winter ([8]; 250 g ai/ha): 65; Plant response rating, Speedwell ([9]; 62 g ai/ha): 100; Plant response rating, Speedwell ([9]; 125 g ai/ha): 100; Plant response rating, Speedwell ([9]; 250 g ai/ha): 100; Chamomile plant response rating ([10]; Postemergence, 31 g ai/ha): 55; Chamomile plant response rating ([10]; Postemergence, 125 g ai/ha): 60; Chamomile plant response rating ([10]; Postemergence, 250 g ai/ha): 65; Chamomile plant response rating ([10]; postemergence, 62 g ai/ha): 55; Plant response rating, Field Violet ([11]; 62 g ai/ha): 100; Plant response rating, Field Violet ([11]; 125 g ai/ha): 100; Plant response rating, Field Violet ([11]; 250 g ai/ha): 100"
